Assay results published in ChEMBL document CHEMBL1681685, “A novel class of dual mPGES-1/5-LO inhibitors based on the α-naphthyl pirinixic acid scaffold” (Bioorg Med Chem Lett, 2011).
The source made the active and inactive calls. No cut-off for these calls is given here.

Experiments:
Prostaglandin E synthase = biological target: T1, Prostaglandin E synthase (Homo sapiens, UniProt O14684); experiment: Inhibition of mPGES-1 expressed in […]-stimulated human A549 cells mitochondrial fraction assessed as conversion of PGH2 to PGE2; format: cell-based
T1 sequence (O14684 whole entry): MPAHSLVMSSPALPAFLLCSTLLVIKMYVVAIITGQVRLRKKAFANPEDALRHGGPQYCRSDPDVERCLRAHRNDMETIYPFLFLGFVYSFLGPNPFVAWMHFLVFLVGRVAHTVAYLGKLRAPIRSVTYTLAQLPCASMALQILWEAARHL

[1] = biological target: T2, Polyunsaturated fatty acid 5-lipoxygenase (Homo sapiens, UniProt P09917); experiment: Inhibition of human recombinant 5-lipoxygenase
T2 sequence (P09917 whole entry): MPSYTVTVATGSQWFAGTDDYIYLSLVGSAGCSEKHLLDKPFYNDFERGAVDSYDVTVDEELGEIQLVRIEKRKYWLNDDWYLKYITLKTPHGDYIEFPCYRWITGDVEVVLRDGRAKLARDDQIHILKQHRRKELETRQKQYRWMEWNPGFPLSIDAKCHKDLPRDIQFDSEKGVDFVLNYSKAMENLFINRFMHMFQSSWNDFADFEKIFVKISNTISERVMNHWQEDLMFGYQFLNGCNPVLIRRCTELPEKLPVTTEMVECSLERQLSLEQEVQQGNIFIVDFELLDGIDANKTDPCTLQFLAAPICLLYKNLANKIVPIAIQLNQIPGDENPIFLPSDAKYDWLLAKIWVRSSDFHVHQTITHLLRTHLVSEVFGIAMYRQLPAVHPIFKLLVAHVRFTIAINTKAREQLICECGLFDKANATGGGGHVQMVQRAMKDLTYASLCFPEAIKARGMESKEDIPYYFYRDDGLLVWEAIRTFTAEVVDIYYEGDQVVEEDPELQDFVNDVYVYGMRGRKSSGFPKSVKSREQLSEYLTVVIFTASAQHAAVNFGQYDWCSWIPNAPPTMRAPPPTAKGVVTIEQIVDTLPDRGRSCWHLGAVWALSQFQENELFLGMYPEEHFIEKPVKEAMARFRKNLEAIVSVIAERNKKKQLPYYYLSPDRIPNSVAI

[2] = biological target: T2, Polyunsaturated fatty acid 5-lipoxygenase; experiment: Inhibition of 5-lipoxygenase in human PMNL
[3] = biological target: T3, Polyunsaturated fatty acid 5-lipoxygenase (Homo sapiens) (UniProt P09917); experiment: Inhibition of human recombinant 5-lipoxygenase assessed as remaining activity at 10 uM
T3 sequence (whole entry): T2 sequence (P09917 whole entry)

[4] = biological target: T4, Prostaglandin E synthase (Homo sapiens) (UniProt O14684); experiment: Inhibition of mPGES-1 expressed in IL-1beta-stimulated human A549 cells mitochondrial fraction assessed as remaining activity at 10 uM
T4 sequence (whole entry): T1 sequence (O14684 whole entry)

[5] = biological target: T4, Prostaglandin E synthase (Homo sapiens); experiment: Inhibition of mPGES-1 expressed in […]-stimulated human A549 cells mitochondrial fraction assessed as remaining activity at 10 uM; format: cell-based
[6] = biological target: T3, Polyunsaturated fatty acid 5-lipoxygenase (Homo sapiens); experiment: Inhibition of 5-lipoxygenase in human PMNL assessed as remaining activity at 10 uM

SMILES | IC50 (Prostaglandin E synthase) [µM] | IC50 [1] [µM] | IC50 [2] [µM] | Activity [3] | Activity [4] | Activity [5] [%] | Activity [6]
O=C(O)C(Sc1nc(Cl)cc(Nc2ccc3c(c2)Cc2ccccc2-3)n1)c1cccc2ccccc12 (centres undefined) | 1.55 | 1.6 | 0.24 | – | – | – | –
O=C(O)C(Sc1nc(Cl)cc(Nc2cccc(-c3ccccc3)c2)n1)c1cccc2ccccc12 (centres undefined) | 1.9 | 5 | 0.5 | – | – | – | –
O=C(O)C(Sc1nc(Cl)cc(Nc2ccc(-c3ccccc3)cc2)n1)c1cccc2ccccc12 (centres undefined) | 0.94 | 2.3 | 0.1 | – | – | – | –
O=C(O)C(Sc1nc(Cl)cc(Nc2ccc3ncccc3c2)n1)c1cccc2ccccc12 (centres undefined) | – | – | 4.4 | 19% | 49.1% | – | –
CC(C)(C)c1cc(Nc2cc(Cl)nc(SC(C(=O)O)c3cccc4ccccc34)n2)cc(C(C)(C)C)c1 (centres undefined) | 0.9 | 1.9 | 0.26 | – | – | – | –
O=C(O)C(Sc1nc(Cl)cc(NCCCc2ccccc2)n1)c1cccc2ccccc12 (centres undefined) | 6.1 | – | 1.8 | 68.9% | – | – | –
N#Cc1ccc(-c2ccc(Nc3cc(Cl)nc(SC(C(=O)O)c4cccc5ccccc45)n3)cc2)cc1 (centres undefined) | 1.6 | 2.3 | 0.17 | – | – | – | –
O=C(O)C(Sc1nc(Cl)cc(Nc2ccc(Cl)cc2)n1)c1cccc2ccccc12 (centres undefined) | 5.1 | 8.9 | 0.8 | – | – | – | –
Cc1ccc(Nc2cc(Cl)nc(SC(C(=O)O)c3cccc4ccccc34)n2)cc1C (centres undefined) | 5.7 | 8.5 | 0.7 | – | – | – | –
O=C(O)C(Sc1nc(Cl)cc(NCCc2ccccc2)n1)c1cccc2ccccc12 (centres undefined) | – | – | 2.5 | 44.2% | 42.3% | – | –
O=C(O)C(Sc1nc(Cl)cc(Nc2ccc(C3CCCCC3)cc2)n1)c1cccc2ccccc12 (centres undefined) | 1.45 | 2 | 0.4 | – | – | – | –
O=C(O)C(Sc1nc(Cl)cc(Nc2ccc(Cc3ccccc3)cc2)n1)c1cccc2ccccc12 (centres undefined) | 1.5 | 2.2 | 0.3 | – | – | – | –
O=C(O)C(Sc1nc(Cl)cc(Nc2cccc(Cl)c2)n1)c1cccc2ccccc12 (centres undefined) | – | 5 | 0.7 | – | 45.5% | – | –
O=C(O)C(Sc1nc(Cl)cc(Nc2ccc3ccccc3c2)n1)c1cccc2ccccc12 (centres undefined) | 1.9 | 2.9 | 0.5 | – | – | – | –
O=C(O)C(Sc1nc(Cl)cc(Nc2ccc(F)cc2)n1)c1cccc2ccccc12 (centres undefined) | – | – | 3.1 | 67.3% | 49.9% | – | –
O=C(Nc1ccc(Nc2cc(Cl)nc(SC(C(=O)O)c3cccc4ccccc34)n2)cc1)c1ccccc1 (centres undefined) | – | 5.2 | 0.6 | – | 38.8% | – | –
CC(C)c1ccc(Nc2cc(Cl)nc(SC(C(=O)O)c3cccc4ccccc34)n2)cc1 (centres undefined) | – | 5.8 | 0.26 | – | 35.8% | – | –
CC(C)CNc1cc(Cl)nc(SC(C(=O)O)c2cccc3ccccc23)n1 (centres undefined) | – | – | 2.5 | 54.8% | – | 65.3 | –
O=C(O)C(Sc1nc(Cl)cc(Nc2ccc3c(c2)CCC3)n1)c1cccc2ccccc12 (centres undefined) | – | 4.2 | 0.5 | – | 36.7% | – | –
O=C(O)C(Sc1nc(Cl)cc(NCc2ccc(-c3ccccc3)cc2)n1)c1cccc2ccccc12 (centres undefined) | 0.88 | 3 | 0.7 | – | – | – | –
Cc1cccc(Nc2cc(Cl)nc(SCC(=O)O)n2)c1C | – | – | – | inactive | inactive | – | inactive
CCCCNc1cc(Cl)nc(SC(C(=O)O)c2cccc3ccccc23)n1 (centres undefined) | – | – | 2.4 | 70.6% | 90.2% | – | –
O=C(O)C(Sc1nc(Cl)cc(Nc2ccc(Oc3ccccc3)cc2)n1)c1cccc2ccccc12 (centres undefined) | 0.94 | 3.1 | 0.4 | – | – | – | –
